Data taken from ChEMBL document CHEMBL4270495, “Oleanane-, ursane-, and quinone methide friedelane-type triterpenoid derivatives: Recent advances in cancer treatment” (Eur J Med Chem, 2017).
pIC50: −log10 of the molar value. Each block holds one molecule with its values, some of them ahead of it.

How the values were obtained:
HeLa [1] = assay: Cytotoxicity in human HeLa cells assessed as reduction in cell viability incubated for 72 hrs by MTT assay; format: functional, cell-based
BJ = assay: Cytotoxicity in human BJ cells assessed as reduction in cell viability incubated for 72 hrs by MTT assay; format: functional, cell-based
HT-29 [2] = assay: Cytotoxicity in human HT-29 cells assessed as reduction in cell viability incubated for 72 hrs by MTT assay; format: functional, cell-based; conditions: HT-29, 72 h
MCF7 = assay: Cytotoxicity in human MCF7 cells assessed as reduction in cell viability incubated for 72 hrs by MTT assay; format: functional, cell-based; conditions: MCF7, 72 h
HeLa [3] = assay: Cytotoxicity in human HeLa cells assessed as reduction in cell viability incubated for 48 hrs by MTT assay; format: functional, cell-based
HepG2 [4] = assay: Cytotoxicity in human HepG2 cells assessed as reduction in cell viability incubated for 48 hrs by MTT assay; format: functional, cell-based; conditions: HepG2, 48 h
BGC-823 [5] = assay: Cytotoxicity in human BGC823 cells assessed as reduction in cell viability incubated for 48 hrs by MTT assay; format: functional, cell-based; conditions: BGC-823, 48 h
[6] = Cytotoxicity in human […] cells assessed as reduction in cell viability incubated for 72 hrs by MTT assay; format: functional, cell-based
ASPC1 = assay: Growth inhibition of human AsPC1 cells incubated for 72 hrs by MTT assay; format: functional, cell-based; conditions: ASPC1, 72 h
HT-29 [7] = assay: Cytotoxicity in human HT-29 cells assessed as reduction in cell viability incubated for 96 hrs by SRB assay; format: functional, cell-based; conditions: HT-29, 96 h
A549 = assay: Cytotoxicity in human A549 cells assessed as reduction in cell viability incubated for 96 hrs by SRB assay; format: functional, cell-based; conditions: A549, 96 h
NIH3T3 = assay: Cytotoxicity in mouse NIH/3T3 cells assessed as reduction in cell viability incubated for 96 hrs by SRB assay; format: cell-based; conditions: NIH3T3, 96 h
BGC-823 [8] = assay: Cytotoxicity in human BGC823 cells assessed as reduction in cell viability incubated for 72 hrs by MTT assay; format: functional, cell-based; conditions: BGC-823, 72 h
PC-3 = assay: Cytotoxicity in human PC3 cells assessed as reduction in cell viability incubated for 72 hrs by MTT assay; format: functional, cell-based; conditions: PC-3, 72 h
[9] = Cytotoxicity in human A375-S2 cells assessed as reduction in cell viability incubated for 48 hrs by MTT assay; format: functional, cell-based; conditions: A375-S2, 48 h
Hep 3B2 = assay: Cytotoxicity in human Hep3B cells assessed as reduction in cell viability incubated for 72 hrs by cell-titer Glo asay; format: functional, cell-based
Huh-7 = assay: Cytotoxicity in human HuH7 cells assessed as reduction in cell viability incubated for 72 hrs by cell-titer Glo asay; format: functional, cell-based; conditions: Huh-7, 72 h
HepG2 [10] = assay: Cytotoxicity in human HepG2 cells assessed as reduction in cell viability incubated for 72 hrs by cell-titer Glo asay; format: functional, cell-based; conditions: HepG2, 72 h
HeLa [11] = assay: Cytotoxicity in human HeLa cells assessed as reduction in cell viability; format: functional, cell-based
BGC-823 [12] = assay: Cytotoxicity in human BGC823 cells assessed as reduction in cell viability; format: functional, cell-based
AGS = assay: Antiproliferative activity in human AGS cells incubated for 3 days by MTT assay; format: functional, cell-based; conditions: 72 h

SMILES: COC(=O)[C@]12CC[C@@H](C)[C@H](C)[C@H]1C1=CC(=O)[C@@H]3[C@@]4(C)C(C=O)=C[C@@](C)(CO)[C@@H]4CC[C@@]3(C)[C@]1(C)CC2
pIC50 (HeLa [1]): 6.52 | pIC50 (BJ): 5.48 | pIC50 (HT-29 [2]): 6.23 | pIC50 (MCF7): 6.13

SMILES: CC(=O)O/N=C1\CC[C@]2(C)[C@H]3CC=C4[C@@H]5[C@@H](C)[C@H](C)CC[C@]5(C(=O)Nc5ccccc5)CC[C@@]4(C)[C@]3(C)CC[C@H]2C1(C)C
pIC50 (HeLa [3]): 5.03 | pIC50 (HepG2 [4]): 4.67 | pIC50 (BGC-823 [5]): 5.09

SMILES: C[C@H]1[C@H](C)CC[C@]2(C(=O)OCc3ccccc3)CC[C@]3(C)C(=CC[C@@H]4[C@@]5(C)CC[C@H](OC(=O)CCC(=O)O)C(C)(C)[C@@H]5CC[C@]43C)[C@H]12
pIC50 [6]: 5.09

SMILES: COC(=O)[C@]12CC[C@@H](C)[C@H](C)[C@H]1C1=CC(=O)[C@@H]3[C@@]4(C)C(C=O)=C[C@@](C)(COS(C)(=O)=O)[C@@H]4CC[C@@]3(C)[C@]1(C)CC2
pIC50 (HeLa [1]): 6.62 | pIC50 (BJ): 5.61 | pIC50 (HT-29 [2]): 6.23 | pIC50 (MCF7): 6.19

pIC50 (ASPC1): > 5.30
SMILES: COC(=O)[C@]12CCC(C)(C)C[C@H]1C1=CC[C@@H]3[C@@]4(C)C/C(=C/n5ccnc5)C(=O)C(C)(C)[C@@H]4CC[C@@]3(C)[C@]1(C)CC2

SMILES: COC(=O)[C@]12CCC(C)(C)C[C@H]1C1=CC[C@@H]3[C@@]4(C)C[C@@H](OS(N)(=O)=O)[C@H](O)C(C)(C)[C@@H]4CC[C@@]3(C)[C@]1(C)CC2
pIC50 (HT-29 [7]): 5.12 | pIC50 (A549): 5.19

SMILES: COC(=O)[C@]12CCC(C)(C)C[C@H]1C1=CC[C@@H]3[C@@]4(C)C[C@@H](O)[C@H](OS(N)(=O)=O)C(C)(C)[C@@H]4CC[C@@]3(C)[C@]1(C)CC2
pIC50 (HT-29 [7]): 5.46 | pIC50 (A549): 5.40 | pIC50 (NIH3T3): 5.66

SMILES: CCCC(=O)O[C@H]1CC[C@]2(C)[C@H]3CC=C4[C@@H]5CC(C)(C)CC[C@]5(C(=O)n5ccc(=O)[nH]c5=O)CC[C@@]4(C)[C@]3(C)CC[C@H]2C1(C)C
pIC50 (BGC-823 [8]): 6.66 | pIC50 (PC-3): 6.55

SMILES: CC1(C)CC[C@]2(C(=O)OCc3cn(-c4ccc([N+](=O)[O-])cc4)nn3)CC[C@]3(C)C(=CC[C@@H]4[C@@]5(C)CCC(=O)C(C)(C)[C@@H]5CC[C@]43C)[C@@H]2C1
pIC50 [9]: > 5.52

SMILES: CC1=C(O)C(=O)C=C2C1=CC=C1[C@@]2(C)CC[C@@]2(C)[C@@H]3C[C@](C)(C(=O)NCCc4ccccc4)CC[C@]3(C)CC[C@]12C
pIC50 (Hep 3B2): 5.97 | pIC50 (Huh-7): 5.98 | pIC50 (HepG2 [10]): 5.45

SMILES: CC(=O)O[C@H]1CC[C@]2(C)[C@H]3CC=C4[C@@H]5[C@@H](C)[C@H](C)CC[C@]5(C(=O)N5CCOCC5)CC[C@@]4(C)[C@]3(C)CC[C@H]2C1(C)C
pIC50 (HeLa [11]): 5.66 | pIC50 (BGC-823 [12]): < 5.00

pIC50 (AGS): 5.05
SMILES: CC1(C)CC[C@]2(C(=O)O)CC[C@]3(C)C(=CC[C@@H]4[C@@]5(C)CC[C@H](OC(=O)CCc6cn(-c7ccc(Cl)cc7)nn6)C(C)(C)[C@@H]5CC[C@]43C)[C@@H]2C1
